Molecules are shown by their SMILES.

A word on the EC50: it is the concentration at which the effect is half-maximal.

The target of this assay is T1, short form of the GPR120 receptor (Homo sapiens, UniProt Q5NUL3).
T1 construct: host or cells: PathHunter CHO-K1 GPR120S β-Arrestin Cell Line
T1 sequence (Q5NUL3 1-361): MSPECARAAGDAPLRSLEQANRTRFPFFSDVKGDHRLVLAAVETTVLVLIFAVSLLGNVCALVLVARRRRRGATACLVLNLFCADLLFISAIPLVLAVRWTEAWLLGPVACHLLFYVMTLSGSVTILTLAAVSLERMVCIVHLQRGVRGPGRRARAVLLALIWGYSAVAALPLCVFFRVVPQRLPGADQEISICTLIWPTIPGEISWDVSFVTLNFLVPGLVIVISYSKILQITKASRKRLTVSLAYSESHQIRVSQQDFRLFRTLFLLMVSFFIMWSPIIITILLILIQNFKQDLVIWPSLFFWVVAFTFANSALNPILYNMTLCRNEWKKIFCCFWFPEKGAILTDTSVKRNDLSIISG
The assay can be described thus: Human GPR120 DiscoveRx PathHunter Beta-Arrestin Assay, Procedure β-arrestin B (5000 cells/well). The assay is classed as cell-based. In short, it runs like this:
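PathHunter CHO-K1 cells expressing short-form GPR120 (NM_181745), seeded at 5000 cells/well, were exposed to compound for 90 min at 37 °C in HBSS/20 mM HEPES/0.1% BSA, pH 7.4. Dilutions ran 25–0.012 µM before addition to wells. β-arrestin recruitment was read by EFC β-gal luminescence, and EC50 was fitted to % activity versus positive control with Hill slope fixed at 1.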
The molecule `CCc1cc2cc(Cl)cc(COc3ccc(CCC(=O)O)c(C)c3C)c2o1` [Compound 11, 3-{4-[(5-Chloro-2-ethyl-1-benzofuran-7-yl)methoxy]-2,3-dimethylphenyl}propanoic acid] displayed a concentration giving a half-maximal response (EC50) of 94 nM. Then `CCc1cc2cc(OC(F)(F)F)cc(COc3ccc(CCC(=O)O)c(C)c3C)c2o1` [Compound 12, 3-(4-{[2-Ethyl-5-(trifluoromethoxy)-1-benzofuran-7-yl]methoxy}-2,3-dimethylphenyl)propanoic acid], with 70 nM. With `Cc1cc2cc(OC(F)(F)F)cc(COc3ccc(CCC(=O)O)c(C)c3C)c2o1` [Compound 36, 3-(2,3-Dimethyl-4-{[2-methyl-5-(trifluoromethoxy)-1-benzofuran-7-yl]methoxy}phenyl)propanoic acid], the EC50 stood at 69 nM. For the molecule `CCc1cc2cc(Cl)cc(COc3ccc(CCC(=O)O)c4c3CCC4)c2o1` [Compound 54, 3-{7-[(5-Chloro-2-ethyl-1-benzofuran-7-yl)methoxy]-2,3-dihydro-1H-inden-4-yl}propanoic acid], a half-maximal effect (EC50) was put at 150 nM. In the case of `CCc1cc2ccc(OC(F)F)c(COc3ccc(CCC(=O)O)c(C)c3C)c2o1` [Compound 70, 3-(4-{[6-(Difluoromethoxy)-2-ethyl-1-benzofuran-7-yl]methoxy}-2,3-dimethylphenyl)propanoic acid], the concentration for a half-maximal effect (EC50) came to 1290 nM.
